Converted amounts (≈) assume the structure as drawn. *1 amine or outer side, *2 acyl side, *3 side chain or, on linkers, in order; H or OH if unused. Where a SMILES comes first, the peptide text is derived from it. [ ]: non-standard residue; d: D form. The star is where a group is joined. Ava(2S,3R-(OH)2,4S-OMe) = CO[C@@H](CN[*:1])[C@H](O)[C@H](O)C(=O)[*:2]; dHis(βS-OH,π-Me) = Cn1cncc1[C@@H](O)[C@@H](N)C(=O)O; Butanoyl(2R-OH,3S-OH) = C[C@H](O)[C@@H](O)C(=O)*; Val(3-OH) = CC(C)(O)[C@H](N)C(=O)O; NMeF = CN[C@@H](Cc1ccccc1)C(=O)O
Legend:
[1] = test system: Enterobacter cloacae 17059482; type: cell-based; conditions: strain 17059482; CAMHB, CLSI/EUCAST broth microdilution, 5x10^5 CFU mL-1, 20-22 h, duplicates
Description: (§1) 5. Determination of the minimal inhibitory concentration (MIC) in vitro The MIC of Corramycin was evaluated following the Clinical & Laboratory Standard Institute (CLSI; https://clsi.org) and EUCAST (https://eucast.org) guidelines. First, inoculi of the bacterial test strains were prepared by culturing isolated colonies in cation-adjusted Müller Hinton broth (CAMHB; 2 g L-1 beef infusion solids, 1.5 g L-1 starch, 17.5 g L-1 casein hydrolysates, final pH 7.4) at 37 °C and 180 rpm for 18 h. Next, Corramycin, which was dissolved in DMSO, was transferred into the first row of a 96-well plate to reach an end concentration of 64 µg mL-1 (in 100 µL total volume). A 1:1 serial dilution in cation-adjusted Mueller Hinton broth (CAMHB) of the test compound was done from the top row to the bottom row of the 96-well plate to reach an end concentration of 0.125 µg mL-1 in the bottom row. Afterwards, the respective test strains were transferred into the wells, reaching a total volume of 100 µL and 5x10^5 colony-forming units (CFU) mL-1. After a 20 to 22 h of incubation, the optical density was evaluated on a microplate reader and the MIC endpoint was determined as the lowest concentration of antibiotic at which there was no visible growth observed. Each MIC experiment was performed in duplicates. Table S 4 depicts the MIC values of Corramycin against all bacterial strains tested in this study.
(§2) Table S 4. MIC values of Corramycin against all bacterial strains tested in this study. […]

[2] = test system: Enterobacter cloacae DSM46348; type: cell-based; conditions: strain DSM46348; CAMHB, CLSI/EUCAST broth microdilution, 5x10^5 CFU mL-1, 20-22 h, duplicates
Description: as §1, §2

[3] = test system: Enterococcus faecium A6349; type: cell-based; conditions: strain A6349; CAMHB, CLSI/EUCAST broth microdilution, 5x10^5 CFU mL-1, 20-22 h, duplicates
Description: as §1, §2

[4] = test system: Enterococcus faecium DSM17050; type: cell-based; conditions: strain DSM17050; CAMHB, CLSI/EUCAST broth microdilution, 5x10^5 CFU mL-1, 20-22 h, duplicates
Description: as §1, §2

Escherichia coli 1705863 = type: cell-based; conditions: strain 1705863; CAMHB, CLSI/EUCAST broth microdilution, 5x10^5 CFU mL-1, 20-22 h, duplicates
Description: as §1, §2

[5] = test system: Escherichia coli ATCC35218; type: cell-based; conditions: strain ATCC35218; CAMHB, CLSI/EUCAST broth microdilution, 5x10^5 CFU mL-1, 20-22 h, duplicates
Description: as §1, §2

[6] = test system: Escherichia coli DSM46345; type: cell-based; conditions: strain DSM46345; CAMHB, CLSI/EUCAST broth microdilution, 5x10^5 CFU mL-1, 20-22 h, duplicates
Description: as §1, §2

[7] = test system: Escherichia coli MG1655 WT; type: cell-based; conditions: strain MG1655 WT; CAMHB, CLSI/EUCAST broth microdilution, 5x10^5 CFU mL-1, 20-22 h, duplicates
Description: as §1, §2

[8] = test system: Escherichia coli NCTC10418; type: cell-based; conditions: strain NCTC10418; CAMHB, CLSI/EUCAST broth microdilution, 5x10^5 CFU mL-1, 20-22 h, duplicates
Description: as §1, §2

[9] = test system: Escherichia coli NCTC13441; type: cell-based; conditions: strain NCTC13441; CAMHB, CLSI/EUCAST broth microdilution, 5x10^5 CFU mL-1, 20-22 h, duplicates
Description: as §1, §2

[10] = test system: Klebsiella pneumoniae 1705949; type: cell-based; conditions: strain 1705949; CAMHB, CLSI/EUCAST broth microdilution, 5x10^5 CFU mL-1, 20-22 h, duplicates
Description: as §1, §2

[11] = test system: Klebsiella pneumoniae 1705966; type: cell-based; conditions: strain 1705966; CAMHB, CLSI/EUCAST broth microdilution, 5x10^5 CFU mL-1, 20-22 h, duplicates
Description: as §1, with “study. […]” for “study.”

[12] = test system: Salmonella typhimurium ATCC13311; type: cell-based; conditions: strain ATCC13311; CAMHB, CLSI/EUCAST broth microdilution, 5x10^5 CFU mL-1, 20-22 h, duplicates
Description: as §1, with “study. […]” for “study.”

[13] = test system: Enterococcus faecalis 1069 VanB; type: cell-based
Description: as §1, with “study. […]” for “study.”

CO[C@@H](CNC(=O)[C@H](NC(=O)[C@H](O)[C@H](C)O)[C@H](O)c1cncn1C)[C@H](O)[C@H](O)C(=O)N(C)[C@@H](Cc1ccccc1)C(=O)NCC(=O)N[C@H](C(=O)N[C@@H](CO)C(=O)N[C@H](C(=O)N[C@@H](CC(C)C)C(=O)N[C@@H](CO)C(=O)O)C(C)(C)O)C(C)(C)O [Corramycin] ({Butanoyl(2R-OH,3S-OH)}-[dHis(βS-OH,π-Me)][Ava(2S,3R-(OH)2,4S-OMe)][NMeF]G[Val(3-OH)]S[Val(3-OH)]LS-OH)
MIC [1]: >64 µg/mL | MIC [2]: 32 µg/mL (≈ 27 µM) | MIC [3]: >64 µg/mL | MIC [4]: 64 µg/mL (≈ 54 µM) | MIC (Escherichia coli 1705863): 8 µg/mL (≈ 6.76 µM) | MIC [5]: 1 to 4 µg/mL | MIC [6]: 32 µg/mL (≈ 27 µM) | MIC [7]: 8 to 16 µg/mL | MIC [8]: 8 µg/mL (≈ 6.76 µM) | MIC [9]: 4 µg/mL (≈ 3.38 µM) | MIC [10]: 64 µg/mL (≈ 54 µM) | MIC [11]: >64 µg/mL | MIC [12]: 4 µg/mL (≈ 3.38 µM) | MIC [13]: 16 µg/mL (≈ 13.5 µM) | Cytotoxicity (mammalian cell lines): no cytotoxicity
